Literature values as cited in patent US6746695B1, “Pharmaceutical preparations of bioactive substances extracted from natural sources” (Armadillo Pharmaceuticals, Inc., priority 1998, dated 2004).
Where two headings read alike, the source gives them in different places.

Experiments:
[1] = chickens
[2] = Dogs
[3] = mice
[4] = rats
[5] = target: T1, prostoglandin synthetase (Bos taurus, UniProt O62664); settings: enzyme prepared from bovine seminal vesicles; compared with aspirin
T1 construct: prostoglandin synthetase prepared from bovine seminal vesicles; from tissue; host or cells: bovine seminal vesicles
T1 sequence (O62664 25-600): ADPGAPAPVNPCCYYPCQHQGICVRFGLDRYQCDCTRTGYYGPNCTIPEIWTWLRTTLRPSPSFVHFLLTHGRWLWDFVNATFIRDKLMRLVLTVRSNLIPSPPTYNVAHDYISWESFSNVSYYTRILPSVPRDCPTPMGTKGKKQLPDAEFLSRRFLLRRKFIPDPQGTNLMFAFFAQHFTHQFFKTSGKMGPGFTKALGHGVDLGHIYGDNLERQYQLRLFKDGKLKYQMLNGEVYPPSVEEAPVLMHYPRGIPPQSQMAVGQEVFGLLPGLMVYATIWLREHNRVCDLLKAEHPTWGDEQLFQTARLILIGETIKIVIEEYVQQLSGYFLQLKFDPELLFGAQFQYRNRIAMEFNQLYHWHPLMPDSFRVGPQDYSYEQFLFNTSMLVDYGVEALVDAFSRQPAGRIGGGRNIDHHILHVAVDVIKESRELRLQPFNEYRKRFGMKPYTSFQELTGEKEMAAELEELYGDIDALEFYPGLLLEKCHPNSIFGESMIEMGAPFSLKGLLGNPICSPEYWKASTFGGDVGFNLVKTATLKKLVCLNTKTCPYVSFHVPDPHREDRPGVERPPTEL

| SMILES | food intake [1] | weight reduction [2] | food intake [3] | food intake [4] | potency as inhibitor of prostoglandin synthetase relative to aspirin [5] |
| --- | --- | --- | --- | --- | --- |
| CO[C@H]1[C@@H](OC)C[C@@H](O[C@@H]2O[C@H](CO)[C@@H](O)[C@H](O)[C@H]2O)/C(=C\C#N)[C@@H]1O [Simmondsin] | reducing food intake | useful weight reduction agent | reducing food intake | reducing food intake | – |
| COc1cc2c(cc1OC)[C@@H]1C[C@H](C[C@H]3CCCCN31)OC(=O)/C=C\c1ccc(O)c-2c1 [cryogenine] | – | – | – | – | more than twice as potent as aspirin |
| COc1ccc2c(c1OC)-c1cc(ccc1O)/C=C\C(=O)O[C@H]1C[C@@H]3CCCCC3[C@H]2C1 (stereo partly drawn) [nesodine] | – | – | – | – | more than twice as potent as aspirin |
